biological target: Sphingosine 1-phosphate receptor 1 (Homo sapiens, UniProt P21453); test: S1P1 receptor agonists, dose response, cell-based, agonist mode, 60K MLSMR set (AID 468); conditions: not given
Sequence (P21453 whole entry): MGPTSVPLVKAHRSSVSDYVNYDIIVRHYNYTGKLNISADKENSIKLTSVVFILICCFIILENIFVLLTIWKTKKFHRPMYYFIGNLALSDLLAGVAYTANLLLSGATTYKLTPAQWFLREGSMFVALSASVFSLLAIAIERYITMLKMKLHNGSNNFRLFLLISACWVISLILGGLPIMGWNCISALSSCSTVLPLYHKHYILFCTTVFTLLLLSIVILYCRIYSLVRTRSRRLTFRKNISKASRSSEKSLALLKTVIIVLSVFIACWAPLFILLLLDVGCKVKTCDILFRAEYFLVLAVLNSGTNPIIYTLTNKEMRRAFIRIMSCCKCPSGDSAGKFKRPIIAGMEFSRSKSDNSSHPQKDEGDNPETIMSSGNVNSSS

| Compound | EC50 [µM] |
| --- | --- |
| O=S1(=O)Nc2c(ccc3cccnc23)-c2ccccc21 [5H-quinolino[8,7-c][1,2]benzothiazine 6,6-dioxide] | 3.95 |
| COc1ccc(N2CCn3c2nc2c3c(=O)n(CCCc3ccccc3)c(=O)n2C)c(OC)c1 [6-(2,4-dimethoxyphenyl)-4-methyl-2-(3-phenylpropyl)-7,8-dihydropurin[7,8-a]imidazole-1,3-quinone] | 5.83 |
| Clc1ccccc1C1=Nn2c(nnc2-c2ccncc2)SC1 [6-(2-chlorophenyl)-3-(4-pyridyl)-7H-[1,2,4]triazolo[3,4-b][1,3,4]thiadiazine] | 3.48 |
| CCOC(=O)C1C(=O)C=C(c2ccc(OC)cc2)CC1c1ccco1 (configuration not stated) [6-(2-furanyl)-4-(4-methoxyphenyl)-2-oxo-1-cyclohex-3-enecarboxylic acid ethyl ester] | 3.51 |
| COc1ccc(-c2cn3c(C)c(C(=O)Nc4ccncc4)sc3n2)cc1 [6-(4-methoxyphenyl)-3-methyl-N-(4-pyridyl)imidazo[2,1-b]thiazole-2-carboxamide] | > 10 |
| Cc1ccc(N2C(=O)c3cccc4c(N5CCN(C)CC5)ccc(c34)C2=O)c2cccnc12 [6-(4-methyl-1-piperazinyl)-2-(8-methyl-5-quinolinyl)-1H-benzo[de]isoquinoline-1,3(2H)-dione] | > 30 |
| Cc1[nH]nc2c1C1(C(=O)N(Cc3ccc(Cl)cc3)c3ccccc31)C(C#N)C(=N)O2 (configuration not stated) [6-amino-1'-[(4-chlorophenyl)methyl]-3-methyl-2'-oxo-5-spiro[2H-pyrano[2,3-c]pyrazole-4,3'-indole]carbonitrile] | 58 |
| CCc1cc2c(N3CCN(c4ccccc4)CC3)ncnc2s1 [6-ethyl-4-(4-phenyl-1-piperazinyl)thieno[2,3-d]pyrimidine] | 6.61 |
| c1csc(CCNc2ncnc3sc4c(c23)CCC4)c1 [7,8-dihydro-6H-cyclopenta[4,5]thieno[1,2-c]pyrimidin-1-yl-[2-(2-thienyl)ethyl]amine] | 1.24 |
| OCC12C=CC(O1)c1c2c(O)n(-c2ccccc2-c2ccccc2)c1O (configuration not stated) [7-(hydroxymethyl)-2-(2-phenylphenyl)-4,7a-dihydro-3aH-octahydro-1H-4,7-epoxyisoindole-1,3-dione] | 5.47 |
| CCOC(=O)c1cccc2c1-c1ccccc1C2N=O (configuration not stated) [9-hydroximinofluorene-4-carboxylic acid ethyl ester] | 13 |
| Cc1nnc(SC(=O)N2c3ccccc3Sc3ccccc32)s1 [10-phenothiazinecarbothioic acid S-(5-methyl-1,3,4-thiadiazol-2-yl) ester] | 3.57 |
| CCCCn1ccnc1C(=O)c1cccc(S(=O)(=O)N2c3ccccc3CC2C)c1 (configuration not stated) [(1-butyl-2-imidazolyl)-[3-[(2-methyl-2,3-dihydroindol-1-yl)sulfonyl]phenyl]methanone] | 9.34 |
| Cc1nc(NC(C)c2ccccc2)c2oc3ccccc3c2n1 (configuration not stated) [(2-methylbenzofuro[3,2-d]pyrimidin-4-yl)-(1-phenylethyl)amine] | 6.97 |
| C=CCN1/C(=N/c2cccnc2)SCC1(O)c1ccc(C)cc1 (configuration not stated) [(2E)-3-allyl-4-(4-methylphenyl)-2-(pyridin-3-ylimino)-1,3-thiazolidin-4-ol] | 6.13 |
| Cn1c(C(=O)N2CCCc3ccccc32)cc2sccc21 [(3,4-Dihydro-2H-quinolin-1-yl)-(4-methyl-4H-thieno[3,2-b]pyrrol-5-yl)-methanone] | 1.78 |
| OC(c1cccc(OCc2ccccc2)c1)c1nnc(-c2ccccc2)o1 (configuration not stated) [(3-benzoxyphenyl)-(5-phenyl-1,3,4-oxadiazol-2-yl)methanol] | 2.08 |
| Nc1ccc(N2CCOCC2)c(Cl)c1 [(3-chloro-4-morpholino-phenyl)amine] | 1.18 |

| Compound | EC50 [µM] |
| --- | --- |
| O=C(Oc1cccc(C(=O)N2CCOCC2)c1)c1ccc(Br)cc1 [(3-morpholin-4-ylcarbonylphenyl) 4-bromanylbenzoate] | > 95 |
| O=C(CSc1nnc(-c2cc3ccccc3cc2O)n1Cc1ccco1)c1ccc(F)cc1 [(3Z)-3-[3-[2-(4-fluorophenyl)-2-oxidanylidene-ethyl]sulfanyl-4-(furan-2-ylmethyl)-1H-1,2,4-triazol-5-ylidene]naphthalen-2-one] | 19.8 |
| Cc1cc(C(=O)N2CCN(C(c3ccccc3)c3ccccc3)CC2)on1 [(4-benzhydrylpiperazin-1-yl)-(3-methyl-1,2-oxazol-5-yl)methanone] | 5.8 |
| CC(C)c1cc(C(=O)N2CCN(C(c3ccccc3)c3ccccc3)CC2)no1 [(4-benzhydrylpiperazin-1-yl)-(5-propan-2-yl-1,2-oxazol-3-yl)methanone] | > 10 |
| CCCc1cc(C(=O)N2CCN(C(c3ccccc3)c3ccccc3)CC2)no1 [(4-benzhydrylpiperazin-1-yl)-(5-propyl-1,2-oxazol-3-yl)methanone] | 8.01 |
| O=C(c1cc(-c2ccco2)on1)N1CCN(C(c2ccccc2)c2ccccc2)CC1 [(4-benzhydrylpiperazin-1-yl)-[5-(furan-2-yl)-1,2-oxazol-3-yl]methanone] | 6.75 |
| COc1cccc2sc(Nc3nc(-c4ccccn4)cs3)nc12 [(4-methoxy-1,3-benzothiazol-2-yl)-[4-(2-pyridyl)thiazol-2-yl]amine] | 2.75 |
| O=C(C1CCCN1S(=O)(=O)c1cccc2cccnc12)N1CCN(c2ccccc2)CC1 (configuration not stated) [(4-phenyl-1-piperazinyl)-[1-(8-quinolinylsulfonyl)-2-pyrrolidinyl]methanone] | > 95 |
| CCCc1ccc(Oc2c[nH]nc2-c2ccc(O)cc2O)cc1 [(4E)-3-hydroxy-4-[4-(4-propylphenoxy)-1,2-dihydropyrazol-3-ylidene]-1-cyclohexa-2,5-dienone] | 15.5 |
| COc1ccc(C(=O)C2C(=O)C(=O)N(CC3CCCO3)C2c2cccc(OC)c2)cc1 (configuration not stated) [(4Z)-4-[hydroxy-(4-methoxyphenyl)methylene]-5-(3-methoxyphenyl)-1-(tetrahydrofurfuryl)pyrrolidine-2,3-quinone] | > 95.1 |
| COc1ccc(CCNc2c(C)c(C)nc3ncnn23)cc1 [(5,6-Dimethyl-[1,2,4]triazolo[1,5-a]pyrimidin-7-yl)-[2-(4-methoxy-phenyl)-ethyl]-amine] | 3.12 |
| CS(=O)(=O)n1nc(OC(=O)c2cccc3ccccc23)cc1N [(5-amino-1-methylsulfonylpyrazol-3-yl) naphthalene-1-carboxylate] | 9.29 |
| Cc1nn(C(=O)c2cccs2)c(N)c1-c1ccccc1 [(5-amino-3-methyl-4-phenyl-1-pyrazolyl)-thiophen-2-ylmethanone] | 7.24 |
| Cc1ccc(C(=O)c2cncc(Br)c2)cc1 [(5-bromanylpyridin-3-yl)-(4-methylphenyl)methanone] | 9.76 |
| O=C(c1cc(-c2ccccc2)on1)N1CCN(Cc2ccc3c(c2)OCO3)CC1 [(5-phenylisoxazol-3-yl)-(4-piperonylpiperazino)methanone] | > 30 |
| CCC(NCc1ccc2c(c1)OCO2)=C1C(=O)NC(=O)N(C2CCCCC2)C1=O [(5E)-5-[1-(1,3-benzodioxol-5-ylmethylamino)propylidene]-1-cyclohexyl-1,3-diazinane-2,4,6-trione] | 6.81 |
| CCc1c(C)nc2ncnn2c1NCCc1ccc(OC)cc1 [(6-Ethyl-5-methyl-[1,2,4]triazolo[1,5-a]pyrimidin-7-yl)-[2-(4-methoxy-phenyl)-ethyl]-amine] | 8.3 |
| Brc1ccc2ncnc(Nc3ccc(N4CCOCC4)cc3)c2c1 [(6-bromoquinazolin-4-yl)-(4-morpholinophenyl)amine] | 7.6 |

same assay, conditions: inactive by the depositor's call

| Compound | EC50 [µM] |
| --- | --- |
| O=c1oc2cc(Br)ccc2n1CSC1=NCCS1 [6-Bromo-3-(4,5-dihydro-thiazol-2-ylsulfanylmethyl)-3H-benzooxazol-2-one] | 12.9 |
| CC(C)Cn1c(N)c(C(=O)CSc2ccc3c(c2)OCCO3)c(=O)n(C)c1=O [6-amino-5-[2-(2,3-dihydro-1,4-benzodioxin-6-ylsulfanyl)acetyl]-3-methyl-1-(2-methylpropyl)pyrimidine-2,4-dione] | 24 |
| COc1cccc(-c2nnc3sc(C4CCCCC4)nn23)c1 [6-cyclohexyl-3-(3-methoxyphenyl)-[1,2,4]triazolo[3,4-b][1,3,4]thiadiazole] | 17.4 |
| COc1ccc2ncn(-c3ccccc3)c2c1 [6-methoxy-1-phenyl-1H-1,3-benzodiazole] | 16.1 |
| Cc1cc(N2CCN(C(c3ccccc3)c3ccccc3)CC2)n2ncnc2n1 [7-(4-benzhydrylpiperazin-1-yl)-5-methyl-[1,2,4]triazolo[1,5-a]pyrimidine] | 14.5 |
| CCNc1nc2c(c(=O)n(C)c(=O)n2C)n1Cc1ccc(Cl)cc1 [7-(4-chlorobenzyl)-8-(ethylamino)-1,3-dimethyl-xanthine] | 12.9 |
| CCCc1cc2c(=O)c(-c3ccccn3)coc2cc1OC [7-methoxy-6-propyl-3-(2-pyridinyl)-1-benzopyran-4-one] | 51.8 |
| CCCn1c(CN2CCN(c3cccc(Cl)c3)CC2)nc2c1c(=O)n(C)c(=O)n2C [8-[[4-(3-chlorophenyl)-1-piperazinyl]methyl]-1,3-dimethyl-7-propylpurine-2,6-dione] | 20.3 |
| CC1=CC(C)(C)Nc2ccc(OC(=O)c3cccnc3)cc21 [(2,2,4-trimethyl-1H-quinolin-6-yl) pyridine-3-carboxylate] | 11.4 |
| CC1CC(C)(C)Nc2ccc(OC(=O)c3ccco3)cc21 (configuration not stated) [(2,2,4-trimethyl-3,4-dihydro-1H-quinolin-6-yl) furan-2-carboxylate] | 13.6 |
| COc1ccc(CNc2cc(C)nc3ncnn23)c(OC)c1 [(2,4-Dimethoxy-benzyl)-(5-methyl-[1,2,4]triazolo[1,5-a]pyrimidin-7-yl)-amine] | 16.3 |
| CCOc1ccccc1COC(=O)c1cccc(-n2cnnn2)c1 [(2-ethoxyphenyl)methyl 3-(1,2,3,4-tetrazol-1-yl)benzoate] | 22.9 |
| Cc1cc(C(=O)N2CCN(C(c3ccccc3)c3ccccc3)CC2)no1 [(4-benzhydrylpiperazin-1-yl)-(5-methyl-1,2-oxazol-3-yl)methanone] | 25.5 |
| CCCn1c(CNc2ccc(Br)cc2)nc2ccccc21 [(4-bromophenyl)-[(1-propylbenzimidazol-2-yl)methyl]amine] | 12.1 |
| CCN(CC)C(=O)Oc1ccc2c(=O)c(-c3ccccc3)coc2c1 [(4-oxidanylidene-3-phenyl-chromen-7-yl) N,N-diethylcarbamate] | 37.2 |
| Cn1cccc1C(=O)OCc1cc(Cl)cc2c1OCOC2 [(6-chloranyl-4H-1,3-benzodioxin-8-yl)methyl 1-methylpyrrole-2-carboxylate] | 15.6 |
